According to publication PMC3111206, “Phase I study of PD 0332991, a cyclin-dependent kinase inhibitor, administered in 3-week cycles (Schedule 2/1)” (British Journal of Cancer, 2011):
Entries after “also recorded” stand apart in the source; their conditions may differ. Like-named read-outs stand apart in the source and are kept apart here.

Experiments:
[1] = Safety assessment: adverse events and haematological toxicity graded by NCI CTCAE v3.0; type: in vivo, human
Experimental: Safety was assessed at baseline, at regular intervals throughout the study, and within 1 week following treatment discontinuation by recording AEs, haematological and biochemical parameters, and physical status (including ECOG performance status). Adverse event severity was graded using the National Cancer Institute Common Terminology Criteria for Adverse Events, version 3.0 ([Trotti et al, 2003]). Triplicate electrocardiograms (ECGs) ∼2 min apart were taken at baseline, 3 h post-dose on days 1, 8 and 15 of cycle 1, and on day 15 of subsequent cycles for up to six cycles.

Rb-negative tumours = test system: Rb-negative tumours; parameters: method as in Fry et al, 2004; conditions: in vivo; ref Fry et al, 2004; cited from earlier work
[2] = Plasma pharmacokinetics, single dose and steady state; type: in vivo, human; conditions: for AUC(0-t): read-out: AUC(0–10), mean (%CV)
Experimental: Samples for measurement of PK parameters were collected from all patients pre-dose and at intervals up to 10 h post-dose following a single administration (cycle one, day 1) and after repeated dosing (cycle 1, day 8). In cycle 1, three additional blood samples for PK analysis were collected during the 7-day interval without treatment on days 15, 16 and 17. In addition a sample was collected from patients in the expanded MTD cohort 24 h post-dose on cycle 1, day 1. Urine PK assessments (0–10 h post-dose) were carried out on cycle 1, day 1 in patients in the expanded cohort. Blood draws for PK assessment were also obtained at the same time as ECG testing at the projected time-to-first occurrence of the maximum observed plasma concentration (Cmax). Individual area under the concentration–time curve (AUC) values estimated based on dose and individual apparent clearance (CL/F) was obtained from population PK modelling. Additional PK parameters assessed were the time-to-first occurrence of Cmax (Tmax), the apparent volume of distribution during the terminal phase (Vz/F), the terminal elimination half-life (t1/2) and the drug accumulation ratio (Rac).
Pharmacokinetics parameters were determined using non-compartmental analyses (WinNonLin version 4.1; Pharsight, Mountain View, CA, USA). Descriptive statistics for PK parameters were summarised by dosing group, day and cycle.

[3] = Cycle 1, all cohorts combined (N=33)
[4] = maximum toxicity grade, worsened vs baseline, all cohorts and all cycles (N=33)

Question: Which “Treatment-related Muscular weakness, Grade 3” value [1, 3] does the source give for CC(=O)c1c(C)c2cnc(Nc3ccc(N4CCNCC4)cn3)nc2n(C2CCCC2)c1=O [PD 0332991] here?
Answer: The value was 0 n (%).

Question: What about the “Treatment-related Nausea, All grades” value [1, 3] of the same molecule?
Answer: Its value is 10 (30) n (%).

Question: And the “Treatment-related Nausea, Grade 3” value [1, 3]?
Answer: Its value is 0 n (%).

Question: What about the “Treatment-related Peripheral oedema, All grades” value [1, 3] of the same molecule?
Answer: The value was 3 (9) n (%).

Question: What about the “Treatment-related Peripheral oedema, Grade 3” value [1, 3] of the same molecule?
Answer: Its value is 0 n (%).

Question: And the “Treatment-related Pyrexia, All grades” value [1, 3]?
Answer: Its value is 1 (3) n (%).

Question: And the “Treatment-related Pyrexia, Grade 3” value [1, 3]?
Answer: Its value is 0 n (%).

Question: What about the “Treatment-related Rash, All grades” value [1, 3] of the same molecule?
Answer: The value was 4 (12) n (%).

Question: What about the “Treatment-related Rash, Grade 3” value [1, 3] of the same molecule?
Answer: The value was 0 n (%).

Question: And the “Treatment-related Vomiting, All grades” value [1, 3]?
Answer: Its value is 2 (6) n (%).

Question: What about the “Treatment-related Vomiting, Grade 3” value [1, 3] of the same molecule?
Answer: The value was 0 n (%).

Question: What about the “Patients with treatment interrupted following treatment-related AEs” value ([1]; after cycle 1 (two 200-mg QD, one 225-mg QD)) of the same molecule?
Answer: Its value is “three”.

Question: And the Diarrhoea incidence ([1]; after cycle 1, all cohorts)?
Answer: The Diarrhoea incidence was 30%.

Question: And the Epistaxis incidence ([1]; after cycle 1, all cohorts)?
Answer: Its Epistaxis incidence is 12%.

Question: What about the Fatigue incidence ([1]; after cycle 1, all cohorts) of the same molecule?
Answer: The Fatigue incidence was 30%.

Question: What about the Nausea incidence ([1]; after cycle 1, all cohorts) of the same molecule?
Answer: The Nausea incidence was 15%.

Question: And the “Grade 1/2 leukopenia and thrombocytopenia” value ([1]; all cohorts)?
Answer: The value was 58–67 % of patients.

Question: And the “Grade 3/4 leukopenia and neutropenia” value ([1]; all cohorts)?
Answer: The value was 20–25 % of patients.

Question: And the “Patients requiring dose reductions” value ([1]; all cohorts)?
Answer: Its value is “Five”.

Question: What about the “Patients who discontinued treatment permanently because of treatment-related AEs” value ([1]; all cohorts) of the same molecule?
Answer: Its value is “No patient”.

Question: And the “Treatment-related grade 4 non-haematological AEs” value ([1]; all cohorts)?
Answer: The value was “no treatment-related grade 4 non-haematological AEs; also recorded: no treatment-related grade 4 toxicity”.

Question: What about the “Grade 3 or 4 leukopenia” value ([1]; all cohorts and cycles) of the same molecule?
Answer: Its value is 21%.

Question: And the “Grade 3 or 4 lymphopenia” value ([1]; all cohorts and cycles)?
Answer: The value was 36%.

Question: And the “Grade 3 or 4 neutropenia” value ([1]; all cohorts and cycles)?
Answer: The value was 24%.

Question: And the “Grade 3 or 4 thrombocytopenia” value ([1]; all cohorts and cycles)?
Answer: The value was 9%.

Question: What about the “Grade 3 or 4 anaemia” value ([1]; all cohorts and cycles, a single patient) of the same molecule?
Answer: The value was 3%.

Question: What about the “Number of grade 3 non-haematological AEs” value ([1]; all cohorts, all after the first cycle (fatigue, hyperglycaemia, hyponatremia, nausea, vomiting; n=1 each)) of the same molecule?
Answer: The value was “Five”.

Question: What about the Constipation incidence ([1]; during cycle 1, all cohorts) of the same molecule?
Answer: The Constipation incidence was 12%.

Question: What about the Diarrhoea incidence ([1]; during cycle 1, all cohorts) of the same molecule?
Answer: Its Diarrhoea incidence is 18%.

Question: And the Fatigue incidence ([1]; during cycle 1, all cohorts)?
Answer: The Fatigue incidence was 33%.

Question: What about the Nausea incidence ([1]; during cycle 1, all cohorts) of the same molecule?
Answer: Its Nausea incidence is 30%.

Question: And the Rash incidence ([1]; during cycle 1, all cohorts)?
Answer: The Rash incidence was 12%.

Question: What about the “Anaemia, Grade 1/2” value [1, 4] of the same molecule?
Answer: The value was 21 (64) n (%).

Question: What about the “Anaemia, Grade 3/4” value [1, 4] of the same molecule?
Answer: The value was 1 (3) n (%).

Question: And the “Leukopenia, Grade 1/2” value [1, 4]?
Answer: Its value is 22 (67) n (%).

Question: What about the “Leukopenia, Grade 3/4” value [1, 4] of the same molecule?
Answer: The value was 7 (21) n (%).

Question: And the “Lymphopenia, Grade 1/2” value [1, 4]?
Answer: Its value is 8 (24) n (%).

Question: And the “Lymphopenia, Grade 3/4” value [1, 4]?
Answer: The value was 12 (36) n (%).

Question: What about the “Neutropenia, Grade 1/2” value [1, 4] of the same molecule?
Answer: The value was 14 (42) n (%).

Question: And the “Neutropenia, Grade 3/4” value [1, 4]?
Answer: Its value is 8 (24) n (%).

Question: What about the “Thrombocytopenia, Grade 1/2” value [1, 4] of the same molecule?
Answer: Its value is 19 (58) n (%).

Question: What about the “Thrombocytopenia, Grade 3/4” value [1, 4] of the same molecule?
Answer: The value was 3 (9) n (%).

Question: And the “Activity against Rb-negative tumours” value (Rb-negative tumours)?
Answer: Its value is “without activity”.

Question: And the “Cmax, mean (%CV)” value ([2]; human, in vivo, 225 mg)?
Answer: The value was 186 (64) ng ml^−1.

Question: And the “Tmax, median (range)” value ([2]; human, in vivo, 225 mg)?
Answer: Its value is 4.5 (1.0–7.0) h.

Question: What about the Cmax ([2]; human, in vivo, 225 mg, Cmax, mean (%CV)) of the same molecule?
Answer: The Cmax was 104 ng/mL.

Question: What about the Tmax ([2]; human, in vivo, 225 mg, Tmax, median (range)) of the same molecule?
Answer: Its Tmax is 4 h.

Question: And the AUC(0-t) ([2]; human, plasma, oral, 100 mg, plasma, 100 mg QD, Day 1 (n=2 per footnote a))?
Answer: Its AUC(0-t) is 333 ng·h/mL.

Question: And the Cmax ([2]; human, plasma, oral, 100 mg, plasma, 100 mg QD, Day 1 (n=3), read-out: Cmax, mean (%CV))?
Answer: The Cmax was 44 ng/mL.

Question: And the Tmax ([2]; human, plasma, oral, 100 mg, plasma, 100 mg QD, Day 1 (n=3), read-out: Tmax, median (range))?
Answer: The Tmax was 4 h.

Question: And the AUC(0-t) ([2]; human, plasma, oral, 100 mg, plasma, 100 mg QD, Day 8 (n=2 per footnote a))?
Answer: Its AUC(0-t) is 433 ng·h/mL.

Question: And the Cmax ([2]; human, plasma, oral, 100 mg, plasma, 100 mg QD, Day 8 (n=3), read-out: Cmax, mean (%CV))?
Answer: Its Cmax is 58 ng/mL.

Question: And the Tmax ([2]; human, plasma, oral, 100 mg, plasma, 100 mg QD, Day 8 (n=3), read-out: Tmax, median (range))?
Answer: Its Tmax is 4 h.

Question: And the AUC(0-t) ([2]; human, plasma, oral, 150 mg, plasma, 150 mg QD, Day 1 (n=2 per footnote a))?
Answer: Its AUC(0-t) is 622 ng·h/mL.

Question: And the Cmax ([2]; human, plasma, oral, 150 mg, plasma, 150 mg QD, Day 1 (n=4), read-out: Cmax, mean (%CV))?
Answer: The Cmax was 78 ng/mL.

Question: And the Tmax ([2]; human, plasma, oral, 150 mg, plasma, 150 mg QD, Day 1 (n=4), read-out: Tmax, median (range))?
Answer: Its Tmax is 6 h.

Question: What about the AUC(0-t) ([2]; human, plasma, oral, 150 mg, plasma, 150 mg QD, Day 8 (n=3)) of the same molecule?
Answer: Its AUC(0-t) is 1600 ng·h/mL.

Question: And the Cmax ([2]; human, plasma, oral, 150 mg, plasma, 150 mg QD, Day 8 (n=3), read-out: Cmax, mean (%CV))?
Answer: The Cmax was 194 ng/mL.

Question: And the Tmax ([2]; human, plasma, oral, 150 mg, plasma, 150 mg QD, Day 8 (n=3), read-out: Tmax, median (range))?
Answer: The Tmax was 7 h.

Question: What about the AUC(0-t) ([2]; human, plasma, oral, 200 mg, plasma, 200 mg QD, Day 1 (n=19 per footnote a)) of the same molecule?
Answer: Its AUC(0-t) is 525 ng·h/mL.

Question: And the Cmax ([2]; human, plasma, oral, 200 mg, plasma, 200 mg QD, Day 1 (n=20), read-out: Cmax, mean (%CV))?
Answer: The Cmax was 81 ng/mL.

Question: What about the Tmax ([2]; human, plasma, oral, 200 mg, plasma, 200 mg QD, Day 1 (n=20), read-out: Tmax, median (range)) of the same molecule?
Answer: Its Tmax is 5.7 h.

Question: And the AUC(0-t) ([2]; human, plasma, oral, 200 mg, plasma, 200 mg QD, Day 8 (n=8))?
Answer: The AUC(0-t) was 1400 ng·h/mL.

Question: And the Cmax ([2]; human, plasma, oral, 200 mg, plasma, 200 mg QD, Day 8 (n=8), read-out: Cmax, mean (%CV))?
Answer: Its Cmax is 174 ng/mL.

Question: What about the Tmax ([2]; human, plasma, oral, 200 mg, plasma, 200 mg QD, Day 8 (n=8), read-out: Tmax, median (range)) of the same molecule?
Answer: Its Tmax is 4 h.

Question: And the Vd/F ([2]; human, plasma, oral, steady state, 200-mg QD cohort, read-out: Vz/F (apparent volume of distribution), mean)?
Answer: The Vd/F was 3240 L.

Question: What about the half-life ([2]; human, plasma, oral, steady state, 200-mg QD cohort, read-out: t1/2 (terminal elimination half-life), mean (converted)) of the same molecule?
Answer: Its half-life is 1600 min.

Question: What about the “CL/F, mean” value ([2]; steady state, 200-mg QD cohort) of the same molecule?
Answer: The value was 88.5 l per hour.
